In general, IC50 refers to the concentration needed to halve the response being measured.

This is an account of results in ChEMBL document CHEMBL5131450, “Diaryl triazenes inhibit cytochrome P450 1A1 and 1B1 more strongly than aryl morpholino triazenes” (Bioorg Med Chem Lett, 2022).

Structures are written as SMILES.

What all share (format): ADME
One data set deals with T1, Cytochrome P450 1B1 (Homo sapiens, UniProt Q16678).
T1 sequence (Q16678 whole entry): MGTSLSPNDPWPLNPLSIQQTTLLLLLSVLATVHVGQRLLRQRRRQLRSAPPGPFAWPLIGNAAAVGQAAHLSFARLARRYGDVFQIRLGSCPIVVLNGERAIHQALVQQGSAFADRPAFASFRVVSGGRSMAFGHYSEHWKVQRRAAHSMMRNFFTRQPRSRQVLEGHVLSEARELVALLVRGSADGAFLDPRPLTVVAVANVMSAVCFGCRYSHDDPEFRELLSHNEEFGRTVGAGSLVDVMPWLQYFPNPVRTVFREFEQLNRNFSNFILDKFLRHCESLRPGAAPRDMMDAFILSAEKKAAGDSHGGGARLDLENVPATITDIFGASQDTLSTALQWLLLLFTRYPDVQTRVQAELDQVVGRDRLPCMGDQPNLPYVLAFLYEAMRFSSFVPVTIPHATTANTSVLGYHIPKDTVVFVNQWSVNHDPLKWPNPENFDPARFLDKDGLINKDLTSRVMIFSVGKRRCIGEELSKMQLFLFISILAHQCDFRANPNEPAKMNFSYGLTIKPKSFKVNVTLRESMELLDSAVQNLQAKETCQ
Nature of the data set: Inhibition of CYP1B1 (unknown origin).

Data set [1] deals with T2, {'v': 'CYP1A1', 'o': 'p', 'q': 'Inhibition of CYP1A1 (unknown origin)'} (Homo sapiens, UniProt P04798).
T2 sequence (P04798 whole entry): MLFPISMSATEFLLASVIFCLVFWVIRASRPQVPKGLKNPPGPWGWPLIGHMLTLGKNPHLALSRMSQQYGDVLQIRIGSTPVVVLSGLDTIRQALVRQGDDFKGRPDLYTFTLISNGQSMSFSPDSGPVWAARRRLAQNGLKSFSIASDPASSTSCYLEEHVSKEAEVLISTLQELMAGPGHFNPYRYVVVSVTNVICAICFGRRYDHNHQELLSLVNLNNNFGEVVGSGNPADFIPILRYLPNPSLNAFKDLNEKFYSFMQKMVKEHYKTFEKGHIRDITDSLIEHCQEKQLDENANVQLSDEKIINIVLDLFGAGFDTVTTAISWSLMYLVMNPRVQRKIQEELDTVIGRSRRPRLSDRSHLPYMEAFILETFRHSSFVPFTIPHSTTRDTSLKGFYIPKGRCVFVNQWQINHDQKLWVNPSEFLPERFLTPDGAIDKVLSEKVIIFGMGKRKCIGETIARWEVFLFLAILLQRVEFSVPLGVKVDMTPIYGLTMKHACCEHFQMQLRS
The data set can be described thus: Inhibition of CYP1A1 (unknown origin) assessed as remaining enzyme activity relative to control.

The target in data set [2] is T3, {'v': 'CYP1B1', 'o': 'p', 'q': 'Inhibition of CYP1B1 (unknown origin)'} (Homo sapiens, UniProt Q16678).
T3 sequence (Q16678 whole entry): T1 sequence (Q16678 whole entry)
Nature of the data set: Inhibition of CYP1B1 (unknown origin) assessed as remaining enzyme activity relative to control.

The target of a further data set is T4, Cytochrome P450 1A1 (Homo sapiens, UniProt P04798).
T4 sequence (P04798 whole entry): T2 sequence (P04798 whole entry)
Nature of the data set: Inhibition of CYP1A1 (unknown origin).

On to `N#Cc1ccc(/N=N/Nc2ccc(C#N)cc2)cc1`, for which the IC50 against Cytochrome P450 1B1 is 740 nM. Besides, the activity was 96% in data set [1] and 8% in data set [2].
For `Brc1ccc(/N=N/Nc2ccc(Br)cc2)cc1`, the IC50 amounted to 51 nM against Cytochrome P450 1B1 and 3000 nM against Cytochrome P450 1A1. In addition, the activity is 21% in data set [1] and 9% in data set [2].
In the same order, the values of `CC(=O)c1ccc(/N=N/Nc2ccc(C(C)=O)cc2)cc1` are 590 nM, 4000 nM, 33% and 19%.
In the same order, the values of `c1ccc(N=NNc2ccccc2)cc1` are 2000 nM, 8000 nM, 9% and 4%.
